Laboratory results as given in patent publication EP1285920A1, “C10 Ester sustituted taxanes as antitumor agents” (Florida State University Research Foundation, Inc., priority 2001, dated 2003).
Read-outs that look alike come from different tables or passages of the source.

Experiments:
[1] = tested on: Panc-1 pancreatic carcinoma; test: In vivo evaluation against Panc-1 human pancreatic carcinoma (Example 17); conditions: for MDS: i.v. qd x 1 (compounds estimated MTD; Taxol 36 mg/kg split), days until tumor 1.5 g, ended Day 60; for MDS (n): mean days of survival until neoplasm reached 1.5 g, terminated Day 60; for Mean Score: tumor scoring system
Description: The dosing volume was 0.3 ml per 20 g mouse.
Female NCr-nude mice were implanted subcutaneously with 1 mm^3 Panc-1 pancreatic carcinoma fragments in the flank and sorted into treatment groups of six mice each. […] Dosing was initiated on Day 1. The antitumor compounds were given i.v. at an estimated maximum tolerated dose (MTD) appropriate for each agent on a qd x 1 schedule (single administration of compound). […] The vehicle was administered i.v. to control mice in Group 1 on the qd x 1 schedule. The study was terminated on Day 60.
The mean days of survival is the number of days after which a neoplasm reached a size of 1.5 g and the animal was euthanized. A complete response is obtained if the tumor shrinks to a size smaller than its size on Day 1 of the study.

HCT116 = test: In Vitro cytotoxicity measured by the cell colony formation assay; type: cell-based, human; conditions: Homo sapiens, HCT-116; read-out: IN VITRO ID 50 HCT116
Summary of the method: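 Four hundred cells per dish in McCoy's 5a medium with 10% FBS were allowed to attach for 5 h at 37 °C. They were then exposed to compound for 72 h at 37 °C, added as a 10× stock made fresh in medium. After HBSS rinsing and refeeding, colonies were counted after 7 days.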

DU145 prostate carcinoma = conditions: for Toxic Deaths: i.v. qd x 1 at estimated MTD (Taxol 24 mg/kg as two split doses)
Source text: Dosing was initiated on Day 1. […] Treatment groups are detailed in Table 5.

A375 melanoma = conditions: for Toxic Deaths / Survivors / Complete Response / Partial Response / Stable Disease: number of mice; for Toxic Deaths / Survivors / MDS (n) / Complete Response / Partial Response / Stable Disease / Mean Score: i.v. qd x 1 at estimated MTD (Taxol 24 mg/kg, Taxotere 70 mg/kg), 6 mice/group (Taxotere 7); for Survivors / Complete Response / Partial Response / Stable Disease: Day 60; for survival extension compared to Group 1 controls: i.v. qd x 1; for MDS (n): mean days of survival until neoplasm reached 2.0 g, terminated Day 60; for Mean Score: tumor scoring system
Description: Dosing was initiated on Day 1. […] Taxotere was given i.v. on a qd x 1 schedule at a dose of 70 mg/kg. […] The study was terminated on Day 60. Treatment groups are detailed in Table 9.

HCT116 carcinoma = tested on: HCT116 carcinoma
Description: Antitumor compounds were formulated for an i.v. dosing regime and were prepared in the following vehicle: 5% ethanol, 5% Cremophor and 90% isotonic saline.
(§1) The antitumor compounds were given intravenously in a single maximum tolerated dose (MTD) appropriate for each compound. […] The MTDs for the antitumor compounds were calculated from earlier single dose data for mice receiving i.v. administration of these compounds. All vehicle control animals in the split dosing regimes were dosed twice intravenously with half of the total volume being given separated by one hour. The study was terminated on Day 60.
A complete response is obtained if the tumor is not palpable at the end of the study.

VM46 colon carcinoma = conditions: for Complete Response / Partial Response / Stable Disease / Survivors: Day 64
Description: Dosing was initiated on Day 1. […] Taxotere was given i.v. at a dose of 70 mg/kg on a qd x 1 schedule.

MX-1 carcinoma = tested on: MX-1 carcinoma
Description: Thirteen antitumor compounds were formulated for an i.v. dosing regime (single i.v. bolus, qd x 1 schedule) prepared in the following vehicle: 5% ethanol, 5% Cremophor and 90% isotonic saline.
as §1, with “half” for “half of”
A complete response is obtained if the tumor is not palpable at the end of the study. […]

A2780 ovarian carcinoma = tested on: A2780 ovarian carcinoma
Description: Dosing was initiated on Day 1. […] Taxotere was given i.v. on a qd x 1 schedule at a dose of 70 mg/kg. […] The study was terminated on Day 60. Treatment groups are detailed in Table 7.

[2] = Panc-1 (Example 17), i.v. qd x 1, six mice per group
[3] = i.v. qd x 1, mg/kg: Taxol 36, 0499 77, 0503 72.6, 0670 123.1, 0706 107.6, 0838 72.6, 0854 76.9, 6 mice/group
[4] = number of mice, i.v. qd x 1, mg/kg: Taxol 36, 0499 77, 0503 72.6, 0670 123.1, 0706 107.6, 0838 72.6, 0854 76.9, 6 mice/group
[5] = number of mice, i.v. qd x 1, mg/kg: Taxol 36, 0499 77, 0503 72.6, 0670 123.1, 0706 107.6, 0838 72.6, 0854 76.9, 6 mice/group, Day 60
[6] = number of 5 mice, i.v. qd x 1 at estimated MTD (Taxol 24 mg/kg split), Day 91
[7] = number of mice, i.v. qd x 1, mg/kg: Taxol 24, 0499 77, 0503 72.6, 0670 123.1, 0706 107.6, 0838 72.6, 0854 46.6, 0983 67.4, Taxotere 70, 6 mice/group
[8] = number of mice, i.v. qd x 1 at estimated MTD (Taxol 24 mg/kg, Taxotere 70 mg/kg, 0983 72.6 mg/kg), 5 mice/group (Taxotere 6), Day 60

Compound: CCC(=O)O[C@H]1C(=O)[C@@]2(C)[C@H]([C@H](OC(=O)c3ccccc3)[C@]3(O)C[C@H](OC(=O)[C@H](O)[C@@H](NC(=O)c4ccccc4)c4ccoc4)C(C)=C1C3(C)C)[C@]1(OC(C)=O)CO[C@@H]1C[C@@H]2O [Compound 0670]
- MDS ([1]; Panc-1 (Example 17)): 47 to 56 days
- Toxic Deaths [1, 2]: One
- MDS (n) [1, 3]: 51.2 ± 5.9 (2) days
- Toxic Deaths [1, 4]: 1
- Complete Response [1, 5]: 1
- Partial Response [1, 5]: 0
- Stable Disease [1, 5]: 2
- Mean Score [1, 3]: 4.2 ± 1.7
- IC50 (HCT116): < 1 nM
- total response rate (DU145 prostate carcinoma; iv): 20-50%
- Toxic Deaths (DU145 prostate carcinoma; number of 5 mice, Day 91): 0
- Survivors (DU145 prostate carcinoma; [6]): 4
- Toxic Deaths (A375 melanoma): 0
- Survivors (A375 melanoma): 0
- Partial Response (HCT116 carcinoma; iv): 1
- Complete Response (HCT116 carcinoma; iv, 1440 h): 2
- MDS (n) (HCT116 carcinoma; iv, 1440 h): 29.8 ± 0.7 (2) days
- Mean Score (HCT116 carcinoma; iv, 1440 h): 6.6 ± 1.9
- Stable Disease (HCT116 carcinoma; iv, 1440 h): 0
- Survivors (HCT116 carcinoma; number of 5 mice, i.v. qd x 1 at MTD, Day 60, doses as in E3): 3
- Toxic Deaths (HCT116 carcinoma; number of 5 mice, i.v. qd x 1 at MTD, Day 60, mg/kg: Taxol 36 (split doses), 0503 72.6, 0536 49, 0663 159, 0670 123, 0687 159, 0706 108, 0908 159, 0947 76.9, 0951 72.6, 0983 72.6, 0999 49, 1003 49, 1011 108): 0
- response rate (VM46 colon carcinoma; VM46, i.v. qd x 1 at estimated MTD): 16.7-40%
- Mean Score (VM46 colon carcinoma; iv): 2.8 ± 1.2
- MDS (n) (VM46 colon carcinoma; iv, 1536 h): 40.1 ± 5.8 (5) days
- Toxic Deaths (VM46 colon carcinoma; [7]): 0
- Complete Response (VM46 colon carcinoma; [7]): 0
- Partial Response (VM46 colon carcinoma; [7]): 1
- Stable Disease (VM46 colon carcinoma; [7]): 0
- Survivors (VM46 colon carcinoma; [7]): 1
- Partial Response (MX-1 carcinoma; iv): 1
- Complete Response (MX-1 carcinoma; iv, 1440 h): 1
- MDS (n) (MX-1 carcinoma; iv, 1440 h): 28.5 ± 6.1 (4) days
- Mean Score (MX-1 carcinoma; iv, 1440 h): 4.3 ± 1.6
- Stable Disease (MX-1 carcinoma; iv, 1440 h): 0
- Survivors (MX-1 carcinoma; number of 6 mice, i.v. qd x 1 at MTD, Day 60, doses as in E17): 2
- Toxic Deaths (MX-1 carcinoma; number of 6 mice, i.v. qd x 1 at MTD, Day 60, mg/kg: Taxol 36 (split dose), 0503 72.6, 0536 49, 0663 159, 0670 123, 0687 159, 0706 108, 0908 159, 0947 76.9, 0951 72.6, 0983 67.4, 0999 49, 1003 49, 1011 108): 0

Compound: CC(=O)O[C@@]12CO[C@@H]1C[C@H](O)[C@@]1(C)C(=O)[C@H](OC(=O)C3CC3)C3=C(C)[C@@H](OC(=O)[C@H](O)[C@H](C=C(C)C)NC(=O)OC(C)(C)C)C[C@@](O)([C@@H](OC(=O)c4ccccc4)[C@H]21)C3(C)C [Compound 0838]
- MDS ([1]; Panc-1 (Example 17)): 47 to 56 days
- Toxic Deaths [1, 2]: One
- MDS (n) [1, 3]: 54.2 ± 0.9 (2) days
- Toxic Deaths [1, 4]: 1
- Complete Response [1, 5]: 0
- Partial Response [1, 5]: 2
- Stable Disease [1, 5]: 3
- Survivors [1, 5]: 3
- Mean Score [1, 3]: 3.6 ± 1.1
- antitumor activity (DU145 prostate carcinoma; DU145, i.v. qd x 1): active
- complete responses (DU145 prostate carcinoma; DU145, i.v. qd x 1, five mice per group): 2
- Mean Score (DU145 prostate carcinoma; i.v. qd x 1 at estimated MTD (Taxol 24 mg/kg split), 5 mice/group, Day 91): 7 ± 1.5
- Stable Disease (DU145 prostate carcinoma; number of 5 mice, tumor did not reach 1.5 g by end of study, i.v. qd x 1 at estimated MTD (Taxol 24 mg/kg split), Day 91): 1
- Toxic Deaths (DU145 prostate carcinoma; number of 5 mice, Day 91): 0
- Complete Response (DU145 prostate carcinoma; [6]): 2
- Partial Response (DU145 prostate carcinoma; [6]): 1
- Survivors (DU145 prostate carcinoma; [6]): 4
- survival extension compared to Group 1 controls (A375 melanoma; A375): 133%
- MDS (n) (A375 melanoma): 33.5 ± 3.4 (5) days
- Toxic Deaths (A375 melanoma): 0
- Complete Response (A375 melanoma): 1
- Partial Response (A375 melanoma): 0
- Stable Disease (A375 melanoma): 0
- Survivors (A375 melanoma): 1
- Mean Score (A375 melanoma): 3.8 ± 1.2
- Toxic Deaths (VM46 colon carcinoma; VM46, i.v. qd x 1, six mice per group): no toxic deaths
- Toxic Deaths (VM46 colon carcinoma; [7]): 0
- Complete Response (VM46 colon carcinoma; [7]): 0
- Partial Response (VM46 colon carcinoma; [7]): 1
- Stable Disease (VM46 colon carcinoma; [7]): 3
- Survivors (VM46 colon carcinoma; [7]): 4

Compound: CC(=O)O[C@@]12CO[C@@H]1C[C@H](O)[C@@]1(C)C(=O)[C@H](O)C3=C(C)[C@@H](OC(=O)[C@H](O)[C@@H](NC(=O)OC(C)(C)C)c4ccccc4)C[C@@](O)([C@@H](OC(=O)c4ccccc4)[C@H]21)C3(C)C [Taxotere, docetaxel, reference compound]
- antitumor activity (A2780 ovarian carcinoma; A2780, i.v. qd x 1): more active than Taxol
- survival extension compared to Group 1 controls (A2780 ovarian carcinoma; A2780, i.v. qd x 1): 134%
- MDS (A2780 ovarian carcinoma; A2780, i.v. qd x 1 (compounds estimated MTD; Taxol 24 mg/kg split; Taxotere 70 mg/kg), days until tumor 2.0 g, ended Day 60): 27.4 days
- MDS (n) (A2780 ovarian carcinoma; mean days of survival until neoplasm reached 2.0 g, i.v. qd x 1 at estimated MTD (Taxol 24 mg/kg, Taxotere 70 mg/kg, 0983 72.6 mg/kg), 5 mice/group (Taxotere 6), terminated Day 60): 27.4 ± 3.5 (6) days
- Toxic Deaths (A2780 ovarian carcinoma; number of mice, i.v. qd x 1 at estimated MTD (Taxol 24 mg/kg, Taxotere 70 mg/kg, 0983 72.6 mg/kg), 5 mice/group (Taxotere 6)): 0
- Complete Response (A2780 ovarian carcinoma; [8]): 0
- Partial Respons (A2780 ovarian carcinoma; [8]): 0
- Stable Disease (A2780 ovarian carcinoma; [8]): 0
- Survivors (A2780 ovarian carcinoma; [8]): 0
- Mean Score (A2780 ovarian carcinoma; tumor scoring system, i.v. qd x 1 at estimated MTD (Taxol 24 mg/kg, Taxotere 70 mg/kg, 0983 72.6 mg/kg), 5 mice/group (Taxotere 6)): 2.5 ± 0.3
- IC50 (HCT116): 0.6 nM
- survival extension compared to Group 1 controls (A375 melanoma; A375): 49%
- MDS (A375 melanoma; A375, i.v. qd x 1 (Taxol 24 mg/kg split; Taxotere 70 mg/kg), days until tumor 2.0 g, ended Day 60): 21.5 days
- MDS (n) (A375 melanoma): 21.5 ± 0.5 (7) days
- Toxic Deaths (A375 melanoma): 0
- Complete Response (A375 melanoma): 0
- Partial Response (A375 melanoma): 0
- Stable Disease (A375 melanoma): 0
- Survivors (A375 melanoma): 0
- Mean Score (A375 melanoma): 2 ± 0
- MDS (VM46 colon carcinoma; VM46, i.v. qd x 1 (Taxol 24 mg/kg split; Taxotere 70 mg/kg), days until tumor 1.5 g): 45.3 days
- MDS (n) (VM46 colon carcinoma; mean days of survival until neoplasm reached 1.5 g, i.v. qd x 1, mg/kg: Taxol 24, 0499 77, 0503 72.6, 0670 123.1, 0706 107.6, 0838 72.6, 0854 46.6, 0983 67.4, Taxotere 70, 6 mice/group, terminated Day 64): 45.3 ± 3.6 (6) days
- Toxic Deaths (VM46 colon carcinoma; [7]): 0
- Complete Response (VM46 colon carcinoma; [7]): 0
- Partial Response (VM46 colon carcinoma; [7]): 0
- Stable Disease (VM46 colon carcinoma; [7]): 0
- Survivors (VM46 colon carcinoma; [7]): 0
- Mean Score (VM46 colon carcinoma; tumor scoring system, i.v. qd x 1, mg/kg: Taxol 24, 0499 77, 0503 72.6, 0670 123.1, 0706 107.6, 0838 72.6, 0854 46.6, 0983 67.4, Taxotere 70, 6 mice/group): 2 ± 0
